Results: patent publication US9469647B2, “Salt crystals” (INTRA-CELLULAR THERAPIES, INC., priority 2012, dated 2016)
Structures can show the parent of a compound that is named as a salt. Where two headings read alike, the source gives them in different places. Blank lines part the entries; values can stand above or below the compound they belong to.

Tests used:
[1] = Solubility study of phosphate salt crystals in aqueous media at pH 1.2-6.8; format: physicochemical; details: for solubility at 1 hr: read-out: Solubility after 1 hr; for solubility at 16 hr: read-out: Solubility after 16 hrs
Description: The (6aR,9aS)-5,6a,7,8,9,9a-hexahydro-5-methyl-3-(phenylamino)-2-((4-(6-fluoropyridin-2-yl)phenyl)methyl)-cyclopent[4,5]imidazo[1,2-a]pyrazolo[4,3-e]pyrimidin-4(2H)-one mono-phosphate salt crystals are assessed for its aqueous solubility at lower pH. The (amorphous) free base is also tested for reference at a limited range of pH.
Phosphate (buffer) solutions are made at 50 mM concentration and the pH is adjusted to pH 2, 3, 4, 5 or 6.8 using either 3M phosphoric acid (lower pH) or 3M NaOH (higher pH). 0.1N HCl is also used, pH is measured as 1.2.
20 mg of the (6aR,9aS)-5,6a,7,8,9,9a-hexahydro-5-methyl-3-(phenylamino)-2-((4-(6-fluoropyridin-2-yl)phenyl)methyl)-cyclopent[4,5]imidazo[1,2-a]pyrazolo[4,3-e]pyrimidin-4(2H)-one mono-phosphate salt crystals or free base is weighed into a glass vial, and 2 ml of the relevant aqueous media is added. The vials are shaken. After 1 hr, a sample (˜1 ml) is removed via syringe, and filtered through a syringe filter (0.2 micron) into an HPLC vial. After shaking the suspensions for 16 hours, a second sample is taken. All samples are then diluted with the HPLC diluent by a factor of 1000 (except the pH 6.8 samples which are diluted ×10), and re-analysed by HPLC. In cases where the entire solid dissolved, the 2 ml solution is added to another 20 mg salt or free base.

[2] = USP2 dissolution study at pH 1 and 4.5; format: physicochemical; details: for solubility at low pH in dissolution study: pH 1 (0.1 M HCl), 37 C; for time to full dissolution: pH 1, about 0.1 mg/mL (API equivalent), capsule in 1000 mL, 50 rpm
Source text: The rate of dissolution is an important factor in the bioavailability of an active pharmaceutical ingredient (API). This is commonly tested using standard conditions e.g. USP 2 dissolution testing. The pH of the aqueous media used can be correlated with the pH of the stomach (low pH −1-2) and the intestines (intermediate acidic pH −4-6). Therefore pH 1 (0.1 M HCl) and a citrate buffer at pH 4.5 (0.2M) are used for the dissolution testing.
The (6aR,9aS)-5,6a,7,8,9,9a-hexahydro-5-methyl-3-(phenylamino)-2-((4-(6-fluoropyridin-2-yl)phenyl)methyl)-cyclopent[4,5]imidazo[1,2-a]pyrazolo[4,3-e]pyrimidin-4(2H)-one mono-phosphate salt crystals are weighed (×4) into size 0 white gelatine capsules at 119 mg per capsule (equivalent to 100 mg API). The (6aR,9aS)-5,6a,7,8,9,9a-hexahydro-5-methyl-3-(phenylamino)-2-((4-(6-fluoropyridin-2-yl)phenyl)methyl)-cyclopent[4,5]imidazo-[1,2-a]pyrazolo[4,3-e]pyrimidin-4(2H)-one is also weighed (×2) into white gelatine capsules at 100 mg per capsule. These capsules are then dissolved using the standard set up of the USP 2 dissolution equipment i.e., in 1000 mL of the relevant aqueous media, stirrers set at 50 rpm, capsules placed in metal coils to weigh them down, media equilibrated with the water bath set at 37″C. Analytical samples are removed via canula, with an initial filter on the canula and secondary filtering through 0.2 micron syringe filters. The samples are then analysed without dilution by HPLC for API content. Calibration for HPLC is run using both the free base API and the phosphate salt.

[3] = Bridging study of monophosphate salt and free base in dog (plasma pharmacokinetics); format: in vivo; details: po, 40 mg/kg; for half-life: read-out: E Half-life (converted)
Description: The mono-phosphate salt of (6aR,9aS)-5,6a,7,8,9,9a-hexahydro-5-methyl-3-(phenylamino)-2-((4-(6-fluoropyridin-2-yl)phenyl)methyl)-cyclopent[4,5]imidazo[1,2-a]pyrazolo[4,3-e]pyrimidin-4(2H)-one is administered to dogs at a dose of 40 mg/kg in gelatin capsules or via oral gavage in a vehicle formulation of HCl-Citrate, pH 3.5, 0.5% methylcellulose in water. […] The analysis of drug concentration in plasma samples collected is analyzed.
The pharmacokinetic (PK) parameters are determined from the plasma concentration versus time data by non-compartmental methods with uniform weighting (PK solutions 2.0™, Summit Research Services, Montrose, Colo.). The maximum observed concentration (Cmax) and the time of the maximum observed concentration (tmax) are obtained from the bioanalytical raw data. The area-under-the-plasma concentration-time curve from time zero to the time of the last measurable sample (AUC_) is calculated by the trapezoidal rule.

[4] = system: phosphodiesterase 1 (PDE 1); details: statement referring to WO 2009/075784; cited from earlier work
[5] = Single rising dose clinical study (pharmacokinetic profile); format: in vivo; details: plasma, human, aqueous solution, Mean (SD)
Description: In a single rising dose clinical study involving 55 active subjects (15 placebo) with 11 active:3 placebo for each dose level of 10, 25, 75, 150, 300 mg, the mono-phosphate salt crystals of (6aR,9aS)-5,6a,7,8,9,9a-hexahydro-5-methyl-3-(phenylamino)-2-((4-(6-fluoropyridin-2-yl)phenyl)methyl)-cyclopent[4,5]imidazo[1,2-a]pyrazolo[4,3-e]pyrimidin-4(2H)-one is dissolved in water, and this aqueous solution is orally administered. The pharmacokinetic profile is setforth below in Table 7.

[6] = Solid-state properties of the mono-phosphate salt crystals for galenic formulation; format: physicochemical
[7] = 50 mM phosphate buffer, pH 2, aqueous buffer, thermodynamic from solid, pH 2, 50 mM phosphate buffer
[8] = 0.1N HCl, pH 1.2, simulated gastric fluid, thermodynamic from solid, pH 1.2 (0.1N HCl)
[9] = both sexes, Mean (M-5001 to F-5102), oral gavage
[10] = female, dog F-5101, oral gavage
[11] = female, dog F-5102, oral gavage
[12] = 50 mM phosphate buffer, pH 4, aqueous buffer, thermodynamic from solid, pH 4, 50 mM phosphate buffer
[13] = pH 5, 50 mM phosphate buffer, diluted 1000 times before HPLC
[14] = pH 6.8, 50 mM phosphate buffer, diluted 10 times before HPLC
[15] = female, dog F-1101, oral gavage
[16] = female, dog F-1102, oral gavage
[17] = female, dog F-2102, oral capsule

solubility at 1 hr [1, 7]: > 20 mg/mL | solubility at 16 hr [1, 7]: > 20 mg/mL | solubility at 1 hr [1, 8]: > 20 mg/mL | solubility at 16 hr [1, 8]: > 20 mg/mL | Solubility after 1 hr ([1]; pH 3, 50 mM phosphate buffer): 2.5 mg/mL | Solubility after 16 hrs ([1]; pH 3, 50 mM phosphate buffer): 2.2 mg/mL | solubility at low pH in dissolution study [2]: good solubility | time to full dissolution [2]: approximately 15 minutes | AUC [3, 9]: 19200 ng·h/mL | Cmax [3, 9]: 1020 ng/mL | Tmax [3, 9]: 4 h | half-life [3, 9]: 648 min | AUC [3, 10]: 11500 ng·h/mL | Cmax [3, 10]: 674 ng/mL | Tmax [3, 10]: 8 h | half-life [3, 10]: 402 min | AUC [3, 11]: 14300 ng·h/mL | Cmax [3, 11]: 2000 ng/mL | Tmax [3, 11]: 2 h | half-life [3, 11]: 330 min | AUC ([3]; male, dog M-5001, oral gavage): 20100 ng·h/mL | Cmax ([3]; male, dog M-5001, oral gavage): 902 ng/mL | Tmax ([3]; male, dog M-5001, oral gavage): 4 h | half-life ([3]; male, dog M-5001, oral gavage): 888 min | AUC ([3]; male, dog M-5002, oral gavage): 36500 ng·h/mL | Cmax ([3]; male, dog M-5002, oral gavage): 1320 ng/mL | Tmax ([3]; male, dog M-5002, oral gavage): 4 h | half-life ([3]; male, dog M-5002, oral gavage): 1000 min
Compound: CN1C(=O)c2c(nn(Cc3ccc(-c4cccc(F)n4)cc3)c2Nc2ccccc2)N2C1=N[C@@H]1CCC[C@@H]12 [Free base API (amorphous), (6aR,9aS)-5,6a,7,8,9,9a-hexahydro-5-methyl-3-(phenylamino)-2-((4-(6-fluoropyridin-2-yl)phenyl)methyl)-cyclopent[4,5]imidazo[1,2-a]pyrazolo[4,3-e]pyrimidin-4(2H)-one]
PDE1 inhibition (potency and selectivity in words) [4]: potent and selective phosphodiesterase 1 (PDE 1) inhibitor

solubility ([1]; 50 mM phosphate buffer, pH 4, aqueous buffer, thermodynamic from solid, pH 4): ≤ 7700 µg/mL | solubility at 1 hr [1, 12]: 2.5 mg/mL | solubility at 16 hr [1, 12]: 7.7 mg/mL | Solubility after 1 hr ([1]; pH 1.2 (0.1N HCl)): >20 mg/mL | Solubility after 16 hrs ([1]; pH 1.2 (0.1N HCl)): >20 mg/mL | Solubility after 1 hr ([1]; pH 2, 50 mM phosphate buffer): 13.6 mg/mL | Solubility after 16 hrs ([1]; pH 2, 50 mM phosphate buffer): 17.0 mg/mL | Solubility after 1 hr ([1]; pH 3, 50 mM phosphate buffer): 8.4 mg/mL | Solubility after 16 hrs ([1]; pH 3, 50 mM phosphate buffer): 9.4 mg/mL | Solubility after 1 hr [1, 13]: Below detection limit* | Solubility after 16 hrs [1, 13]: Below detection limit* | Solubility after 1 hr [1, 14]: Below detection limit* | Solubility after 16 hrs [1, 14]: Below detection limit* | solubility at low pH in dissolution study [2]: good solubility | time to full dissolution [2]: approximately 15 minutes | AUC ([3]; both sexes, Mean, oral capsule): 18700 ng·h/mL | Tmax ([3]; both sexes, Mean, oral capsule): 2 h | half-life ([3]; both sexes, Mean, oral capsule): 438 min | AUC ([3]; both sexes, Mean, oral gavage): 21300 ng·h/mL | Tmax ([3]; both sexes, Mean, oral gavage): 4 h | half-life ([3]; both sexes, Mean, oral gavage): 522 min | AUC [3, 15]: 16200 ng·h/mL | Cmax [3, 15]: 1080 ng/mL | Tmax [3, 15]: 4 h | half-life [3, 15]: 396 min | AUC [3, 16]: 21300 ng·h/mL | Cmax [3, 16]: 1360 ng/mL | Tmax [3, 16]: 8 h | half-life [3, 16]: 330 min | AUC [3, 17]: 20500 ng·h/mL | Cmax [3, 17]: 1470 ng/mL | Tmax [3, 17]: 8 h | half-life [3, 17]: 372 min | AUC ([3]; male, dog M-1001, oral gavage): 16900 ng·h/mL | Cmax ([3]; male, dog M-1001, oral gavage): 918 ng/mL | Tmax ([3]; male, dog M-1001, oral gavage): 8 h | half-life ([3]; male, dog M-1001, oral gavage): 468 min | AUC ([3]; male, dog M-1002, oral gavage): 31600 ng·h/mL | Cmax ([3]; male, dog M-1002, oral gavage): 1520 ng/mL | Tmax ([3]; male, dog M-1002, oral gavage): 4 h | half-life ([3]; male, dog M-1002, oral gavage): 720 min | AUC ([3]; male, dog M-2001, oral capsule): 13200 ng·h/mL | Cmax ([3]; male, dog M-2001, oral capsule): 2430 ng/mL | Tmax ([3]; male, dog M-2001, oral capsule): 2 h | half-life ([3]; male, dog M-2001, oral capsule): 276 min | AUC ([3]; male, dog M-2002, oral capsule): 21900 ng·h/mL | Cmax ([3]; male, dog M-2002, oral capsule): 1530 ng/mL | Tmax ([3]; male, dog M-2002, oral capsule): 2 h | half-life ([3]; male, dog M-2002, oral capsule): 468 min | Cmax ([3]; Mean, oral capsule): 1330 ng/mL | Cmax ([3]; Mean, oral gavage): 1160 ng/mL | AUC(0-inf) ([5]; single oral dose 10 mg): 772 ng·h/mL | AUC(0-t) ([5]; single oral dose 10 mg): 768 ng·h/mL | Cmax ([5]; single oral dose 10 mg): 89.7 ng/mL | Tmax ([5]; single oral dose 10 mg): 1 h | AUC(0-inf) ([5]; single oral dose 25 mg): 1340 ng·h/mL | AUC(0-t) ([5]; single oral dose 25 mg): 1340 ng·h/mL | Cmax ([5]; single oral dose 25 mg): 155 ng/mL | Tmax ([5]; single oral dose 25 mg): 0.5 h | AUC(0-inf) ([5]; single oral dose 75 mg): 3050 ng·h/mL | AUC(0-t) ([5]; single oral dose 75 mg): 3040 ng·h/mL | Cmax ([5]; single oral dose 75 mg): 334 ng/mL | Tmax ([5]; single oral dose 75 mg): 1 h | AUC(0-inf) ([5]; single oral dose 150 mg): 5050 ng·h/mL | AUC(0-t) ([5]; single oral dose 150 mg): 5040 ng·h/mL | Cmax ([5]; single oral dose 150 mg): 585 ng/mL | Tmax ([5]; single oral dose 150 mg): 1 h | AUC(0-inf) ([5]; single oral dose 300 mg): 8190 ng·h/mL | AUC(0-t) ([5]; single oral dose 300 mg): 8180 ng·h/mL | Cmax ([5]; single oral dose 300 mg): 828 ng/mL | Tmax ([5]; single oral dose 300 mg): 1 h | solubility ([6]; general statement): good solubility | hygroscopicity ([6]; solid salt crystals): low hygroscopicity | stability ([6]; solid salt crystals): particularly stable
Compound: CN1C(=O)c2c(nn(Cc3ccc(-c4cccc(F)n4)cc3)c2Nc2ccccc2)N2C1=N[C@@H]1CCC[C@@H]12 [Phosphate salt, (6aR,9aS)-5,6a,7,8,9,9a-hexahydro-5-methyl-3-(phenylamino)-2-((4-(6-fluoropyridin-2-yl)phenyl)methyl)-cyclopent[4,5]imidazo[1,2-a]pyrazolo[4,3-e]pyrimidin-4(2H)-one]
solubility compared with the amorphous free base ([1]; pH 3): better solubility than the amorphous free base | dissolution rate compared with the free base ([2]; USP 2, pH 1 and pH 4.5): better dissolution rates than the free base
